Data reported in ChEMBL document CHEMBL1201862, “PubChem BioAssay data set” (2004).
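Test compounds were applied to cells in 96-well plates for 48 hours at 5 doses. GI50: concentration for 50% inhibition of growth.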 Active and inactive are the calls of the source. No stated cut-off is given here; in the data, active = GI50 up to about 1.1 µM and inactive = higher.

How the values were obtained:
Assay in all cases: NCI anticancer screen, dose series, 48 h
K562 = test system: K562
HOP-18 = test system: HOP-18
HCT-116 = test system: HCT-116
ACHN = test system: ACHN
SR = test system: SR
LXFL 529 = test system: LXFL 529
IGROV-1 = test system: IGROV-1
SF-268 = test system: SF-268
OVCAR-5 = test system: OVCAR-5
SK-MEL-2 = test system: SK-MEL-2
DMS-273 = test system: DMS-273
KM-20L2 = test system: KM-20L2
NCI-H522 = test system: NCI-H522
DLD-1 = test system: DLD-1
XF498 = test system: XF498
Malme-3M = test system: Malme-3M
MCF7 = test system: MCF7
DU-145 = test system: DU-145
MDA-MB-435 = test system: MDA-MB-435
MDA-N = test system: MDA-N

Measured: GI50

COc1ccc(-c2nnc3c4ccccc4sn23)cc1
inactive: K562 16.6 µM | HOP-18 23.2 µM | HCT-116 30.2 µM | ACHN 28 µM | SR 16.6 µM | LXFL 529 23.7 µM | IGROV-1 19.8 µM | SF-268 22.5 µM | OVCAR-5 > 100 µM | SK-MEL-2 19 µM | DMS-273 10.8 µM | KM-20L2 29.2 µM

Brc1ccc(C2CC(c3cccc4ccccc34)=Nc3ccccc3S2)cc1 (configuration not stated)
inactive: NCI-H522 22.5 µM | K562 26.2 µM | HCT-116 31.3 µM | ACHN > 100 µM | DLD-1 51.8 µM | SR 27.5 µM | LXFL 529 > 100 µM | IGROV-1 > 100 µM | SF-268 > 100 µM | XF498 > 100 µM | OVCAR-5 > 100 µM | SK-MEL-2 > 100 µM | DMS-273 80 µM | KM-20L2 96.8 µM

O=C(Nc1ccc(C2=NCCN2)cc1)c1cncc(C(=O)Nc2ccc(C3=NCCN3)cc2)c1
inactive: NCI-H522 > 100 µM | K562 > 100 µM | Malme-3M > 100 µM | HOP-18 > 100 µM | MCF7 > 100 µM | HCT-116 > 100 µM | DLD-1 > 100 µM | IGROV-1 > 100 µM | SF-268 > 31.6 µM | XF498 > 100 µM | OVCAR-5 > 100 µM | SK-MEL-2 > 100 µM | DMS-273 > 100 µM | KM-20L2 > 100 µM

O=C(O)/C=C/c1c[nH]cn1
inactive: NCI-H522 > 500 µM | K562 > 500 µM | Malme-3M > 500 µM | HOP-18 > 500 µM | MCF7 > 500 µM | HCT-116 > 500 µM | DLD-1 > 500 µM | IGROV-1 > 500 µM | XF498 > 500 µM | OVCAR-5 > 500 µM | SK-MEL-2 > 500 µM | DMS-273 > 500 µM

CCCCCCCCC[C@@H]1C[C@H](O)[C@H](Cc2ccccc2)N1C(=O)OC(C)(C)C
inactive: NCI-H522 16.4 µM | K562 37.4 µM | Malme-3M 20.1 µM | HCT-116 17.9 µM | ACHN 17.1 µM | DLD-1 18.3 µM | SR 18.2 µM | LXFL 529 17.2 µM | IGROV-1 18.6 µM | SF-268 18.7 µM | XF498 22.2 µM | OVCAR-5 15.1 µM | SK-MEL-2 15.3 µM | DMS-273 18.1 µM | KM-20L2 17.1 µM

Cn1c2ccccc2c(=O)c2c(O)cc3c(c21)C=CC(C)(C)O3 [NORACRONYCINE]
inactive: NCI-H522 > 25 µM | K562 > 25 µM | Malme-3M > 25 µM | HOP-18 13.7 µM | MCF7 > 25 µM | HCT-116 > 25 µM | DLD-1 19.4 µM | IGROV-1 > 25 µM | SF-268 > 25 µM | XF498 > 25 µM | OVCAR-5 > 25 µM | SK-MEL-2 > 25 µM | DMS-273 > 25 µM | KM-20L2 > 10.2 µM

N#CSCC1COc2ccccc2O1 (configuration not stated)
inactive: NCI-H522 2.62 µM | K562 1.77 µM | Malme-3M > 10 µM | MCF7 > 10 µM | HCT-116 5.92 µM | DU-145 > 10 µM | ACHN > 10 µM | SR 2.58 µM | MDA-MB-435 > 10 µM | IGROV-1 > 10 µM | SF-268 > 10 µM | OVCAR-5 > 10 µM | SK-MEL-2 > 10 µM | MDA-N > 10 µM

CC1=C2C(=C[C@H]3[C@]4(C)CCCC(C)(C)[C@H]4CC[C@]34O[C@H]24)OC1=O
inactive: NCI-H522 > 100 µM | K562 > 100 µM | Malme-3M > 100 µM | MCF7 > 100 µM | HCT-116 > 100 µM | DU-145 > 100 µM | ACHN > 100 µM | MDA-MB-435 > 100 µM | IGROV-1 > 100 µM | SF-268 > 100 µM | OVCAR-5 > 100 µM | SK-MEL-2 > 100 µM | MDA-N > 100 µM

CN(CCO)CCC1COc2ccccc2O1 (configuration not stated)
inactive: NCI-H522 2.21 µM | K562 > 10 µM | Malme-3M > 10 µM | MCF7 > 10 µM | HCT-116 > 10 µM | DU-145 > 10 µM | ACHN > 10 µM | SR > 10 µM | MDA-MB-435 > 10 µM | IGROV-1 > 10 µM | SF-268 > 10 µM | OVCAR-5 > 10 µM | SK-MEL-2 > 10 µM | MDA-N > 10 µM
